Data set [1] has as its system SJRH30. The data set is described as follows: Induction of cell death in human Rh30 cells at 50 to 100 nM after 72 hrs by propidium iodide/Hoechst 33342 staining based fluorescence microscopic analysis. In kind it is functional.
Data set [2] relates to SJRH30. The data set is described as follows: Potentiation of JNJ-26481585-induced cell death in human Rh30 cells after 72 hrs by propidium iodide/Hoechst 33342 staining based fluorescence microscopic analysis. In kind it is functional.
Data set [3] has as its target T1, Lysine-specific histone demethylase 1A (Homo sapiens, UniProt O60341).
The target of data set [4] is T2, MAO-B (Homo sapiens, UniProt P27338).
T2 sequence (P27338 whole entry): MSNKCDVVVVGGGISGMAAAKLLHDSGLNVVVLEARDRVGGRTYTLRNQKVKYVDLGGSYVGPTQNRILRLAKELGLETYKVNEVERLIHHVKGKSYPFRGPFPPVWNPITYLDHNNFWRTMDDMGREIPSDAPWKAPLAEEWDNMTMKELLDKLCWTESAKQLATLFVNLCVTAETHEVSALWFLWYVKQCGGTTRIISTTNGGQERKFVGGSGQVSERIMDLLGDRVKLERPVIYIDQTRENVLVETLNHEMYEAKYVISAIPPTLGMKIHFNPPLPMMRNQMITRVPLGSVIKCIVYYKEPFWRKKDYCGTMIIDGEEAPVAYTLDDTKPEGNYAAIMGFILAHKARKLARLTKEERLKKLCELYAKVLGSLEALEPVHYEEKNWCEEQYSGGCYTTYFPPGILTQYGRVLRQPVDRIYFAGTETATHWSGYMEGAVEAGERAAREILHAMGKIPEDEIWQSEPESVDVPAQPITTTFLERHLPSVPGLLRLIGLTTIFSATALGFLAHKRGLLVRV
The data set is described as follows: (§1) Inhibition of MAO-B (unknown origin) at 250 uM using beetle luciferin derived luminogenic substrate preincubated for 15 mins followed by substrate addition measured after 60 mins by MAO-Glo assay relative to control. The following applies: MAO-B enzyme (unknown origin), probe beetle luciferin derived luminogenic substrate.

Data set [5] addresses T3, Amine oxidase [flavin-containing] A (Homo sapiens, UniProt P21397).
T3 sequence (P21397 whole entry): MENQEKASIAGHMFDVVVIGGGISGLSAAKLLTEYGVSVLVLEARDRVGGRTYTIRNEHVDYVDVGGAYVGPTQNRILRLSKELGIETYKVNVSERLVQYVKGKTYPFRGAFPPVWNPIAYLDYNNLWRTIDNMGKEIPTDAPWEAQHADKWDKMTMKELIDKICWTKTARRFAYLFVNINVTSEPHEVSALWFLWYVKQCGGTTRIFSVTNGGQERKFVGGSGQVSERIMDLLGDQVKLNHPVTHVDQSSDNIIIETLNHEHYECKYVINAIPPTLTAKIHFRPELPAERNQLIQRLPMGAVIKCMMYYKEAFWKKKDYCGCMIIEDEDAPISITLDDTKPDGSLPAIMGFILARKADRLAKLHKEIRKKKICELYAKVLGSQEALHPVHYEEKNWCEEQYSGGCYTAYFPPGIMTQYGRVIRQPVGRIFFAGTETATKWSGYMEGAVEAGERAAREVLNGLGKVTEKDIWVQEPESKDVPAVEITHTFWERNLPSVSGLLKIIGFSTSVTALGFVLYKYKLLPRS

Data set [6] has as its system THP-1. As to the kind of experiment: cells. The following applies: Homo sapiens, THP-1, 5 min, read-out: INH.
In data set [7] the target is T4, Amine oxidase [flavin-containing] B (Homo sapiens, UniProt P27338).
T4 sequence (P27338 whole entry): T2 sequence (P27338 whole entry)
The data set is described as follows: Inhibition of MAO-B (unknown origin) using beetle luciferin derived luminogenic substrate preincubated for 15 mins followed by substrate addition measured after 60 mins by MAO-Glo assay.

Data set [8] deals with THP-1. As to the kind of experiment: Inhibition of colony formation in human THP1 cells at 0.5 uM after […] by light microscopic method relative to control. In kind it is functional.
For data set [9], the target named is Lysine-specific histone demethylase 1A (Mus musculus) (UniProt Q6ZQ88). The data set is described as follows: Inhibition of LSD1 in mouse Hoxa9/Meis1 transformed progenitor cells assessed as induction of granulocytic differentiation at 50 to 100 nM up to 96 hrs by pappenheim staining based assay.
Data set [10] has the same target. As to the kind of experiment: Inhibition of LSD1 in mouse Hoxa9/Meis1 transformed progenitor cells assessed as reduction in c-Kit positive cells at 100 nM after 96 hrs by flow cytometry. In kind it is cell-based.
Data set [11] has as its target T2, MAO-B. The data set is described as follows: (§2) Inhibition of MAO-B (unknown origin) at 10 uM using beetle luciferin derived luminogenic substrate preincubated for 15 mins followed by substrate addition measured after 60 mins by MAO-Glo assay relative to control. The following applies: MAO-B enzyme (unknown origin), probe beetle luciferin derived luminogenic substrate.

In data set [12] the target is T1, Lysine-specific histone demethylase 1A. This is another data set of the same source.
Data set [13] concerns the target T4, Amine oxidase [flavin-containing] B. Described as §2. The following applies: 1 h, 10 µM.
In another data set the target is T5, MAO-A (Homo sapiens, UniProt P21397).
T5 sequence (P21397 whole entry): T3 sequence (P21397 whole entry)
As to the kind of experiment: in vitro. The following applies: MAO-A enzyme (unknown origin), probe beetle luciferin derived luminogenic substrate.

For data set [14], the target named is T4, Amine oxidase [flavin-containing] B. Described as §1. The following applies: 1 h, 250 µM.

Activity calls are given as the source filed them. The calls are words filed in the database; no cut-off is given here.

For `O=C(O)c1ccc(CN2CCC(CN[C@H]3C[C@@H]3c3ccccc3)CC2)cc1`, the outcome with SJRH30 [1] and in the data set with SJRH30 [2] was Active. Further, the IC50 in data set [3] was 1.7 µM.
Consider `Cc1ccc(-c2ncc(OCC3CCNC3)cc2-c2ccc(C#N)cc2)cc1` (configuration not stated), for which, in data set [3], it took 0.09 µM to reach half-maximal inhibition (IC50).
As to `NS(=O)(=O)c1ccc(CN[C@H]2C[C@@H]2c2ccccc2)cc1` (relative stereo), the inhibition at 1 h, 250 µM against MAO-B [4] worked out at 42%. For the same molecule, the outcome in the data set with SJRH30 [1] and in the data set on SJRH30 [2] was Active. In data set [5], this molecule came in with an IC50 of 21.6 µM. For the same molecule, the inhibition at 0.05 µM in the data set on THP-1 [6] came to 80%.
As to `O=[N+]([O-])c1cccc(CN[C@H]2C[C@@H]2c2ccccc2)c1` (relative stereo), the IC50 in data set [7] worked out at 1.4 µM; in data set [5], 0.488 µM. In addition, the inhibition at 0.5 µM in the data set with THP-1 [8] is 80%. Also, the inhibition entry in data set [9] and in [10] was “Active” throughout.
In turn, `COc1ncccc1CN[C@H]1[C@@H](C)[C@@H]1c1ccccc1` (relative stereo) came in with an inhibition at 1 h, 10 µM against MAO-B [11] of 14%. In addition, the values for the IC50 in [5] and in data set [12] were 41.4 µM and “Not Active”, respectively.
Take `COc1ccccc1CN[C@H]1[C@@H](C)[C@@H]1c1ccccc1` (relative stereo): the “inhibition (INH)” value in data set [13] is given as “Not Active”. In addition, the IC50 result in data set [12] is given as “Not Active”. The molecule further gave an inhibition at 1 h, 10 µM against MAO-A of 32%.
`CNS(=O)(=O)c1ccc(CN[C@H]2C[C@@H]2c2ccccc2)cc1` (relative stereo): the “inhibition (INH)” value in [14] is listed as “Not Active”. Besides, the result in the data set on SJRH30 [1] and in the data set with SJRH30 [2] was Active. Moreover, the half-maximal inhibitory concentration (IC50) in data set [5] was 17.1 µM. For the same molecule, the inhibition at 0.05 µM in the data set on THP-1 [6] amounted to 80%.
On to `Clc1ccc(CN[C@H]2C[C@@H]2c2ccccc2)cc1` (relative stereo), for which the IC50 in [7] is 14.1 µM; in [5], 0.206 µM. Moreover, the inhibition at 0.5 µM with THP-1 [8] stood at 80%. The inhibition result in [9] and in data set [10] was “Active” each time.
On MAO-B [4], `NC(=O)c1ccc(CN[C@H]2C[C@@H]2c2ccccc2)cc1` (relative stereo) displayed an inhibition at 1 h, 250 µM of 50%. Further, the IC50 in data set [5] stood at 24.7 µM.

In general, IC50 refers to the concentration that inhibits the measured activity by half.

(Values after ChEMBL document CHEMBL4251603, “Structure-activity studies on N-Substituted tranylcypromine derivatives lead to selective inhibitors of lysine specific demethylase 1 (LSD1) and potent inducers of leukemic cell differentiation” (Eur J Med Chem, 2018).)
